The values that follow are results of earlier work, collected in patent publication US20060154981A1, “Method of reducing intraocular pressure and treating glaucoma” (Alcon, Inc., priority 2005, published 2006).

SMILES strings stand for the structures.

In one series the test system is neutrophils. Particulars: compared with lipoxin A4.
A further series deals with IOP. Particulars: rabbits.

For `CCCCC[C@H](O)[C@H](O)CO` [compound 2], the “Inhibition of LTB4-induced chemotaxis of neutrophils” value in the series on neutrophils is on record as “inhibit LTB4-induced chemotaxis of neutrophils as potently as lipoxin A4”.
In the case of `CCCCC[C@H](O)/C=C/C=C\C=C\C=C\[C@@H](O)[C@@H](O)CCCC(=O)OC` [methyl ester of lipoxin A4], the IOP lowering entry with IOP is “reported to lower IOP in rabbits”.
